The text below walks through data of the NIST ThermoML archive (doi:10.1016/j.jct.2011.04.013).

Data set [1] can be described thus: Molar enthalpy of transition or fusion. The conditions noted are these: Crystal; DSC.
A short description of data set [2]: Solid-liquid equilibrium temperature. The settings on record: 101.33 kPa; Crystal; DTA.
Data set [3] can be described thus: molar heat capacity at constant pressure. The conditions noted are these: 462.02 K; 101.33 kPa; Crystal; Large sample (1 g) DSC.

Numbers after ± are expanded uncertainties.

For `Cc1cc(=O)oc2cc(O)ccc12` [7-hydroxy-4-methyl-2H-chromen-2-one], the “Molar enthalpy of transition or fusion” value in data set [1] was 31.4 ± 0.69 kJ/mol. The Solid-liquid equilibrium temperature in data set [2] stood at 462.02 ± 0.24 K. Moreover, in data set [3], the “molar heat capacity at constant pressure” value was determined as 8.971 ± 0.18 J/K/mol.

Consider `COc1ccc2oc(=O)cc(C)c2c1` [6-methoxy-4-methylcoumarin], for which the “Molar enthalpy of transition or fusion” value in data set [1] was determined as 33.3 ± 0.72 kJ/mol. Further, in data set [2], the Solid-liquid equilibrium temperature stood at 436.13 ± 0.22 K.

Consider `CCOc1ccc2c(C)cc(=O)oc2c1` [7-ethoxy-4-methyl-2H-chromen-2-one], for which the “Molar enthalpy of transition or fusion” value in data set [1] is 25.8 ± 0.73 kJ/mol. The Solid-liquid equilibrium temperature in data set [2] was 387.52 ± 0.2 K.
